According to US20030166601A1, “Novel colloid synthetic vectors for gene therapy” (priority 1999, published 2003):

Key:
cultured cells = assay: Transfection of cultured cells, luciferase activity; assay type: cell-based
From the text: The gene delivery ability of substituted aminoethanols with long chain hydrocarbon (aliphatic) substitutients was studied by transfection of cultured cells and then in vivo by intravenous injection (Table 2 and 3). The substituted aminoethanols have two hydrophilic polar heads connected with one hydrophobic body, which was named bihead lipids. Bihead lipids are proposed to form a monolayer membrane.

CD-1 mice = assay: Luciferase expression in organs after intravenous injection of pCILuc complexes; assay type: in vivo; conditions: 40 μg pCILuc i.v., 5 h
Protocol: Substituted aminoethanols (cationic compounds) were prepared as described in Examples 1-34. Their gene delivery ability was studied in vivo by intravenous injection (Table 1 and 2) using a standard method. The preparations were administered via tail vein injection to mice and gene expression determined after 5 hours. Female CD-1 mice, 13-15 g, were purchased from Charles River Inc. Forty microgram of pCILuc complexed with GC lipids or GC lipid:Chol dispersion as indicated weight ratios. After 5 h, mice were sacrificed and organs were collected. Organs were homogenized in 0.5 ml of lysis buffer and 20 μl of supernatant was used for luciferase assay. Luciferase activity was represented as a mean of relative light unit (RLU) of four mice. The lipids were either used alone or combined with cholesterol and complexed with a luciferase reporter gene plasmid by a standard procedure at a range of weight and charge ratios. For the in vivo screen, 40 μg of pCILuc was complexed with the formulation and injected into the mice.
All compounds were evaluated for in vivo activity. Two critical factors were examined, formulation with or without cholesterol and the ratio of cationic lipid to DNA. Cholesterol was tested at 1:1 mole ratio of lipid:chol. The studies were performed with a dose of 40 μg of pCILuc complexed with cationic lipid or lipid: Chol (1:1 mole ratio) injected i.v. into CD-1 mice and then luciferase activity in different organs determined 5 h later. The first evaluation included all of 14 GC-lipids at weight ratios of 2 and 10 (GC lipid to DNA). It was performed by four separated experiments. Each time cationic liposome DOTAP:Chol was used as a standard control.
Measurements were repeated with lipids GC-030, GC-034 and GC-029 at wider weight ratios than the first experiment. Luciferase activity is represented as a mean of relative light unit (RLU) of four mice. WR means weight ratio of GC lipids to DNA. The transfection activity was represented by luciferase activity RLU/organ. […] The transfection activity increased with the increased weight ratio (GC lipids to DNA). Inclusion of cholesterol can change the biodistribution of gene expression in the different organs examined. […] However this function of cholesterol was not seen with GC-034.

| Compound | Luciferase RLU/20 μl lysate heart (CD-1 mice; WR 2) | Luciferase RLU/20 μl lysate kidney (CD-1 mice; WR 2) | Luciferase RLU/20 μl lysate liver (CD-1 mice; WR 2) | Luciferase RLU/20 μl lysate lung (CD-1 mice; WR 2) | Luciferase RLU/20 μl lysate heart (CD-1 mice; WR 10) | Luciferase RLU/20 μl lysate kidney (CD-1 mice; WR 10) | Luciferase RLU/20 μl lysate liver (CD-1 mice; WR 10) | Luciferase RLU/20 μl lysate lung (CD-1 mice; WR 10) | Luciferase RLU/20 μl lysate spleen (CD-1 mice; WR 10) | Luciferase RLU/20 μl lysate spleen (CD-1 mice; WR (lipid to DNA) 2) | other results |
| --- | --- | --- | --- | --- | --- | --- | --- | --- | --- | --- | --- |
| CCCCCCCCCCCCCCC(O)CN(CCN)CCCCCCCCNCCCN (centres unmarked) [CGP44207A] | – | – | – | – | – | – | – | – | – | – | Luciferase activity Ave. RLU × 10000/well FBS(+) (cultured cells; charge ratio (+/−) 0.5): 12 RLU × 10000/well; Luciferase activity Ave. RLU × 10000/well FBS(−) (cultured cells; charge ratio (+/−) 0.5): 12 RLU × 10000/well; Luciferase activity Ave. RLU × 10000/well FBS(+) (cultured cells; charge ratio (+/−) 1): 9 RLU × 10000/well; Luciferase activity Ave. RLU × 10000/well FBS(−) (cultured cells; charge ratio (+/−) 1): 11 RLU × 10000/well; Luciferase activity Ave. RLU × 10000/well FBS(+) (cultured cells; charge ratio (+/−) 2): 12 RLU × 10000/well; Luciferase activity Ave. RLU × 10000/well FBS(−) (cultured cells; charge ratio (+/−) 2): 15 RLU × 10000/well; Luciferase activity Ave. RLU × 10000/well FBS(+) (cultured cells; charge ratio (+/−) 4): 22 RLU × 10000/well; Luciferase activity Ave. RLU × 10000/well FBS(−) (cultured cells; charge ratio (+/−) 4): 28 RLU × 10000/well; Luciferase activity Ave. RLU × 10000/well FBS(+) (cultured cells; charge ratio (+/−) 6): 15 RLU × 10000/well; Luciferase activity Ave. RLU × 10000/well FBS(−) (cultured cells; charge ratio (+/−) 6): 22 RLU × 10000/well; Luciferase activity Ave. RLU × 10000/well FBS(+) (cultured cells; charge ratio (+/−) 8): 13 RLU × 10000/well; Luciferase activity Ave. RLU × 10000/well FBS(−) (cultured cells; charge ratio (+/−) 8): 17 RLU × 10000/well |
| CCCCCCCCCCCCCCCCCCN(CCCCCCCCCCCCCCCCCC)C(=O)CC[C@H](NC(=O)[C@H](CCCNCCCN)NCCCN)C(=O)O.O=C(O)C(F)(F)F.O=C(O)C(F)(F)F.O=C(O)C(F)(F)F.O=C(O)C(F)(F)F [GC-033] | 31 RLU/20 μl lysate | 27 RLU/20 μl lysate | 29 RLU/20 μl lysate | 36 RLU/20 μl lysate | 40 RLU/20 μl lysate | 41 RLU/20 μl lysate | 46 RLU/20 μl lysate | 42 RLU/20 μl lysate | 50 RLU/20 μl lysate | 27 RLU/20 μl lysate | – |
| CCCCCCCCCCCCCCCCCCN(CCCCCCCCCCCCCCCCCC)C(=O)CNC(=O)[C@@H](N)CCCN.O=C(O)C(F)(F)F.O=C(O)C(F)(F)F [GC-035] | 54 RLU/20 μl lysate | 46 RLU/20 μl lysate | 57 RLU/20 μl lysate | 57 RLU/20 μl lysate | 51 RLU/20 μl lysate | 54 RLU/20 μl lysate | 50 RLU/20 μl lysate | 54 RLU/20 μl lysate | 54 RLU/20 μl lysate | 70 RLU/20 μl lysate | – |
| CCCCCCCCCCCCCCCCCC(CCCCCCCCCCCCCCCCC)NC(=O)CNC(=O)CNC(=O)[C@H](CCCNCCCN)NCCCN.O=C(O)C(F)(F)F.O=C(O)C(F)(F)F.O=C(O)C(F)(F)F.O=C(O)C(F)(F)F [GC-038] | 101 RLU/20 μl lysate | 60 RLU/20 μl lysate | 59 RLU/20 μl lysate | 142 RLU/20 μl lysate | 57 RLU/20 μl lysate | 58 RLU/20 μl lysate | 93 RLU/20 μl lysate | 63 RLU/20 μl lysate | 160 RLU/20 μl lysate | 61 RLU/20 μl lysate | – |
| CCCCCCCCCCCCCCCCCC(CCCCCCCCCCCCCCCCC)NC(=O)CNC(=O)CNC(=O)[C@@H](N)CCCN.O=C(O)C(F)(F)F.O=C(O)C(F)(F)F [GC-039] | 50 RLU/20 μl lysate | 45 RLU/20 μl lysate | 48 RLU/20 μl lysate | 52 RLU/20 μl lysate | 45 RLU/20 μl lysate | 54 RLU/20 μl lysate | 212 RLU/20 μl lysate | 753 RLU/20 μl lysate | 845 RLU/20 μl lysate | 288 RLU/20 μl lysate | – |
| CCCCCCCCCCCCCCCCCCN(CCCCCCCCCCCCCCCCCC)C(=O)[C@H](CCC(=O)NCCN(CCNC(=O)CC[C@H](NC(=O)[C@H](CCCNCCCN)NCCCN)C(=O)N(CCCCCCCCCCCCCCCCCC)CCCCCCCCCCCCCCCCCC)CCNC(=O)CC[C@H](NC(=O)[C@H](CCCNCCCN)NCCCN)C(=O)N(CCCCCCCCCCCCCCCCCC)CCCCCCCCCCCCCCCCCC)NC(=O)[C@H](CCCNCCCN)NCCCN.O=C(O)C(F)(F)F.O=C(O)C(F)(F)F.O=C(O)C(F)(F)F.O=C(O)C(F)(F)F.O=C(O)C(F)(F)F.O=C(O)C(F)(F)F.O=C(O)C(F)(F)F.O=C(O)C(F)(F)F.O=C(O)C(F)(F)F.O=C(O)C(F)(F)F.O=C(O)C(F)(F)F.O=C(O)C(F)(F)F.O=C(O)C(F)(F)F [GC-071] | 60 RLU/20 μl lysate | 58 RLU/20 μl lysate | 59 RLU/20 μl lysate | 56 RLU/20 μl lysate | 61 RLU/20 μl lysate | 67 RLU/20 μl lysate | 531 RLU/20 μl lysate | 73 RLU/20 μl lysate | 286 RLU/20 μl lysate | 61 RLU/20 μl lysate | – |
